In ChEMBL document CHEMBL4507265 (2021):

Tests used:
[1] = tested on: Tyrosine-protein kinase ABL1 (Homo sapiens), P00519 [H396P]; conditions: Compound concentration 1000.0 nM
[2] = tested on: Tyrosine-protein kinase ABL1 (Homo sapiens), P00519 [T315I]; conditions: Compound concentration 1000.0 nM
[3] = target: Activin receptor type-2B (Homo sapiens) (UniProt Q13705); conditions: Compound concentration 1000.0 nM
[4] = target: ALK tyrosine kinase receptor (Homo sapiens) (UniProt Q9UM73); conditions: Compound concentration 1000.0 nM
Chain of ALK tyrosine kinase receptor (Homo sapiens) (Q9UM73 19-1620 limits assumed): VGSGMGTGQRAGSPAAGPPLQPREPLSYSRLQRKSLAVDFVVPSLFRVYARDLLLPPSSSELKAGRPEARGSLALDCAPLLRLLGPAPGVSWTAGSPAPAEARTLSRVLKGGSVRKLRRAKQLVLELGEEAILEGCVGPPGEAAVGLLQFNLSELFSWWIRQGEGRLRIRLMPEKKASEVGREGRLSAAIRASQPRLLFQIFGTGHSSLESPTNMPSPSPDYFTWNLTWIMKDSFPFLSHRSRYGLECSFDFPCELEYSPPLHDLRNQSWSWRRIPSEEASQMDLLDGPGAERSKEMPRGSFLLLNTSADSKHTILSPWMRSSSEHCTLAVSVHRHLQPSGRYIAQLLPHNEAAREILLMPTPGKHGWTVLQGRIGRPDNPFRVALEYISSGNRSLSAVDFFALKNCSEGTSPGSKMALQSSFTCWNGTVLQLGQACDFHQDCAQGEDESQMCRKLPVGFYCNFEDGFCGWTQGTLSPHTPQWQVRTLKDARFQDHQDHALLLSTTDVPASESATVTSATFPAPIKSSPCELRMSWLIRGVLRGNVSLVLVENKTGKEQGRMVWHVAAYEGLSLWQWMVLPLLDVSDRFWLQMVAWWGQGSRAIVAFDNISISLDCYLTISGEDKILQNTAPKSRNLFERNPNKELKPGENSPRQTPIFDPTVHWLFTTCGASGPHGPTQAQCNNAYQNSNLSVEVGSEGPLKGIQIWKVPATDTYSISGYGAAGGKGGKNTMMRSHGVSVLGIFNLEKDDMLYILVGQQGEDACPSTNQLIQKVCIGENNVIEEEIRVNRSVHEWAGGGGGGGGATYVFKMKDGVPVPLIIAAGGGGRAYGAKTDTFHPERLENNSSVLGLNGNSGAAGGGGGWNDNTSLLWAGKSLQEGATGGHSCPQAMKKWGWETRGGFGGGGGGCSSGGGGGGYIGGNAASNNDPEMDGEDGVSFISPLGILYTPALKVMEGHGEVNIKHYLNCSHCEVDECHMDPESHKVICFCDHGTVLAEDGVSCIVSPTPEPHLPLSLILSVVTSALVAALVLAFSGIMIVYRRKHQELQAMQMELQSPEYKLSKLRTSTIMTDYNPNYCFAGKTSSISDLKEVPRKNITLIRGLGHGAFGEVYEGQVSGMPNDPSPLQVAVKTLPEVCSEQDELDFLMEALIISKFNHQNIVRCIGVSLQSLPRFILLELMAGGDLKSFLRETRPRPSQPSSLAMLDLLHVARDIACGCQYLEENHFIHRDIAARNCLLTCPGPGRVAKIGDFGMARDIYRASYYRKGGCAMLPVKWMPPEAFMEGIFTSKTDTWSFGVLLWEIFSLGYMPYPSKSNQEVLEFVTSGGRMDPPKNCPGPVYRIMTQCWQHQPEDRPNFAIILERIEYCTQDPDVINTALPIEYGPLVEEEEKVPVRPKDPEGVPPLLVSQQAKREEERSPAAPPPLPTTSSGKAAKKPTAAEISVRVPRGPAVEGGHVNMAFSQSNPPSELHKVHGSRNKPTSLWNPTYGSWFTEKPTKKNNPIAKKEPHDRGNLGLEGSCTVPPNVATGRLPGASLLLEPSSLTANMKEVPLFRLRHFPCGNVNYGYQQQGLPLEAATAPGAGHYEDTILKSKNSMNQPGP

[5] = target: Aurora kinase B (Homo sapiens) (UniProt Q96GD4); conditions: Compound concentration 1000.0 nM
[6] = target: Aurora kinase C (Homo sapiens) (UniProt Q9UQB9); conditions: Compound concentration 1000.0 nM
Chain of Aurora kinase C (Homo sapiens) (Q9UQB9 whole entry): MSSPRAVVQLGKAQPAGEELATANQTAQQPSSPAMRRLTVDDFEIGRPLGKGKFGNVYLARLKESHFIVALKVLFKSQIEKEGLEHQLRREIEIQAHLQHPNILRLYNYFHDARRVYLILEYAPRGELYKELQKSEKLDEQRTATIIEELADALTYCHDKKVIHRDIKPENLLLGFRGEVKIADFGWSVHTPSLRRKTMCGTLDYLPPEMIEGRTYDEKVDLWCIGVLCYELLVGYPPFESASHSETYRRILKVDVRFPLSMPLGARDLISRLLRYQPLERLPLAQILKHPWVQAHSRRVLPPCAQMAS

[7] = target: Bone morphogenetic protein receptor type-1A (Homo sapiens) (UniProt P36894); conditions: Compound concentration 1000.0 nM
Chain of Bone morphogenetic protein receptor type-1A (Homo sapiens) (P36894 whole entry): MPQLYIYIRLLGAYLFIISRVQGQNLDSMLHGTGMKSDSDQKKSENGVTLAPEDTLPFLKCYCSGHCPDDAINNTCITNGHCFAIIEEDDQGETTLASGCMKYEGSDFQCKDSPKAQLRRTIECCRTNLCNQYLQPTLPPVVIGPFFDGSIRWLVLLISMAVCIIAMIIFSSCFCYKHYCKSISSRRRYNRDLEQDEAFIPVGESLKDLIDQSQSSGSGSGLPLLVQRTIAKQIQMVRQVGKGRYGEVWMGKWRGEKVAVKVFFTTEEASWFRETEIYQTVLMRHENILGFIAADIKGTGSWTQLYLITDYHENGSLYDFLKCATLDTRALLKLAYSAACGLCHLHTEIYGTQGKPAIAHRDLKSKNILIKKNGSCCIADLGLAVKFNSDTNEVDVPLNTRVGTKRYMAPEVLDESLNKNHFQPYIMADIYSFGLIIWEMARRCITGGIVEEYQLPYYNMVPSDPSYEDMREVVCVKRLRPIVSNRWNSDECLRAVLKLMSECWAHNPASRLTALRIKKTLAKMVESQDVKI

[8] = target: Calcium/calmodulin-dependent protein kinase type II subunit alpha (Homo sapiens) (UniProt Q9UQM7); conditions: Compound concentration 1000.0 nM
[9] = target: Calcium/calmodulin-dependent protein kinase type IV (Homo sapiens) (UniProt Q16566); conditions: Compound concentration 1000.0 nM
[10] = target: Cyclin-dependent kinase 11B (Homo sapiens) (UniProt P21127); conditions: Compound concentration 1000.0 nM
[11] = target: Cyclin-dependent kinase 4 (Homo sapiens) (UniProt P11802); conditions: Compound concentration 1000.0 nM
Chain of Cyclin-dependent kinase 4 (Homo sapiens) (P11802 whole entry): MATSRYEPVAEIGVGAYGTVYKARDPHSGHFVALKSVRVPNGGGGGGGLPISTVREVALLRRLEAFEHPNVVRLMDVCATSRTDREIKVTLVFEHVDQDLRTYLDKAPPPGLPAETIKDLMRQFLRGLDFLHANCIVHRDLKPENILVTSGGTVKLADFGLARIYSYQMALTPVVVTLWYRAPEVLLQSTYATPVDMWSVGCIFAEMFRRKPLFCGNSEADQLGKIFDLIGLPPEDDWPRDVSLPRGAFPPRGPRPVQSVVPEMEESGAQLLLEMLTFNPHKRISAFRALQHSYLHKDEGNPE

[12] = target: Serine/threonine-protein kinase Chk1 (Homo sapiens) (UniProt O14757); conditions: Compound concentration 1000.0 nM
[13] = target: Macrophage colony-stimulating factor 1 receptor (Homo sapiens) (UniProt P07333); conditions: Compound concentration 1000.0 nM
[14] = target: Casein kinase I isoform alpha-like (Homo sapiens) (UniProt Q8N752); conditions: Compound concentration 1000.0 nM
[15] = target: Dual specificity tyrosine-phosphorylation-regulated kinase 1A (Homo sapiens) (UniProt Q13627); conditions: Compound concentration 1000.0 nM
[16] = tested on: Epidermal growth factor receptor (Homo sapiens), P00533 [UNDEFINED MUTATION]; conditions: Compound concentration 1000.0 nM
[17] = tested on: Epidermal growth factor receptor (Homo sapiens), P00533 [UNDEFINED MUTATION]; conditions: Compound concentration 1000.0 nM; remark: listed apart in the source
[18] = tested on: Epidermal growth factor receptor (Homo sapiens), P00533 [L858R]; conditions: Compound concentration 1000.0 nM
[19] = target: Ephrin type-B receptor 2 (Homo sapiens) (UniProt P29323); conditions: Compound concentration 1000.0 nM
[20] = target: Receptor tyrosine-protein kinase erbB-4 (Homo sapiens) (UniProt Q15303); conditions: Compound concentration 1000.0 nM
[21] = target: Tyrosine-protein kinase Fes/Fps (Homo sapiens) (UniProt P07332); conditions: Compound concentration 1000.0 nM
Chain of Tyrosine-protein kinase Fes/Fps (Homo sapiens) (P07332 whole entry): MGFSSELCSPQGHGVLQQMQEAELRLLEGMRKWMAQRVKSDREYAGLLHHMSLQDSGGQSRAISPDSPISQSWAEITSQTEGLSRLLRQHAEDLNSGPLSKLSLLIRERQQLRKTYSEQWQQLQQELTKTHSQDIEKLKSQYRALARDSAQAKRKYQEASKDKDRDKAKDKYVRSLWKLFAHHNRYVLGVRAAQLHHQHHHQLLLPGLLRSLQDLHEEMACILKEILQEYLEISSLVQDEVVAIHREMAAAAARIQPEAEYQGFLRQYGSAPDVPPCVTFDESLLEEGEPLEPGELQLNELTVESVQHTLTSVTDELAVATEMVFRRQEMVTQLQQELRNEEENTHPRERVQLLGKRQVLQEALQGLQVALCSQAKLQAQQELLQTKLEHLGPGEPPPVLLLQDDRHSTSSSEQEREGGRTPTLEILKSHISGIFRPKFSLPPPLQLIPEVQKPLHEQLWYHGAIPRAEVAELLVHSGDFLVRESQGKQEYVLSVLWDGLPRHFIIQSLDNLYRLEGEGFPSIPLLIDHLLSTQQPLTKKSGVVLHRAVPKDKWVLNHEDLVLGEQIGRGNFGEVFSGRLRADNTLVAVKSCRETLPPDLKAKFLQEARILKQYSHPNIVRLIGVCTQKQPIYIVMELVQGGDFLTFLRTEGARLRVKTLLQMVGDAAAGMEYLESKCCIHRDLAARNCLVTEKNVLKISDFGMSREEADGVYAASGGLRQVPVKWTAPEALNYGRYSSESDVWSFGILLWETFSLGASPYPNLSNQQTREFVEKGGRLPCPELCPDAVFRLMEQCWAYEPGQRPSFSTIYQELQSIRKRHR

[22] = target: Receptor-type tyrosine-protein kinase FLT3 (Homo sapiens) (UniProt P36888); conditions: Compound concentration 1000.0 nM
[23] = target: Tyrosine-protein kinase Fyn (Homo sapiens) (UniProt P06241); conditions: Compound concentration 1000.0 nM
[24] = target: G protein-coupled receptor kinase 4 (Homo sapiens) (UniProt P32298); conditions: Compound concentration 1000.0 nM
[25] = target: Inhibitor of nuclear factor kappa-B kinase subunit epsilon (Homo sapiens) (UniProt Q14164); conditions: Compound concentration 1000.0 nM
[26] = target: Tyrosine-protein kinase JAK1 (Homo sapiens) (UniProt P23458); conditions: Compound concentration 1000.0 nM
[27] = tested on: Mast/stem cell growth factor receptor Kit (Homo sapiens), P10721 [L576P]; conditions: Compound concentration 1000.0 nM
Chain of Mast/stem cell growth factor receptor Kit (Homo sapiens), P10721 [L576P] (P10721 whole entry L576P): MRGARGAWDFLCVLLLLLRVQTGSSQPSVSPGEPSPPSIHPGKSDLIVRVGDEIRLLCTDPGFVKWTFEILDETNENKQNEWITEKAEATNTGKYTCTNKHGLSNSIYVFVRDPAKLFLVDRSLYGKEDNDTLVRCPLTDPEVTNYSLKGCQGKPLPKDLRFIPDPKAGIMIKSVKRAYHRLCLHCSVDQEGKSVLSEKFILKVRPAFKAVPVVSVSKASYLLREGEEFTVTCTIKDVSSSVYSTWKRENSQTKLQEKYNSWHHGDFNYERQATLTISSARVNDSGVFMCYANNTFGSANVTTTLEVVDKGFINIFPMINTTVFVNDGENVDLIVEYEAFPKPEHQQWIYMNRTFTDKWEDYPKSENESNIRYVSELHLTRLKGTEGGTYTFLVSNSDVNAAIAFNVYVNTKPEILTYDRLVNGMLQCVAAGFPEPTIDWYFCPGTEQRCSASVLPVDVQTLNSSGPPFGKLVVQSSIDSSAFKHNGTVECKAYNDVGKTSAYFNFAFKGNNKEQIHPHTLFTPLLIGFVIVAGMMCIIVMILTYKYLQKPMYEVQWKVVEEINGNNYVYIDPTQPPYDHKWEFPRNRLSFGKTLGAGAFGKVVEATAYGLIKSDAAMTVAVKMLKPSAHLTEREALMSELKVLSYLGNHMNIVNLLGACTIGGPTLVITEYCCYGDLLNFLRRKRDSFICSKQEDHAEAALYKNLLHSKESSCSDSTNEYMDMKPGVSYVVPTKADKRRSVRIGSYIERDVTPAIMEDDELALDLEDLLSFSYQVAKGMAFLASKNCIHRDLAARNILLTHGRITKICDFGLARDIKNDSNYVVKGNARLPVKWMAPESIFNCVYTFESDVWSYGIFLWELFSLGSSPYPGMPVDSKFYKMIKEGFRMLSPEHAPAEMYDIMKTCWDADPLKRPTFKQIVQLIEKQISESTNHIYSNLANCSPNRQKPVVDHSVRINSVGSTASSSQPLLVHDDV

[28] = target: Serine/threonine-protein kinase 10 (Homo sapiens) (UniProt O94804); conditions: Compound concentration 1000.0 nM
[29] = target: Maternal embryonic leucine zipper kinase (Homo sapiens) (UniProt Q14680); conditions: Compound concentration 1000.0 nM
[30] = target: Serine/threonine-protein kinase 26 (Homo sapiens) (UniProt Q9P289); conditions: Compound concentration 1000.0 nM
[31] = target: Myosin-IIIb (Homo sapiens) (UniProt Q8WXR4); conditions: Compound concentration 1000.0 nM
[32] = target: Serine/threonine-protein kinase NIM1 (Homo sapiens) (UniProt Q8IY84); conditions: Compound concentration 1000.0 nM
[33] = target: Serine/threonine-protein kinase NLK (Homo sapiens) (UniProt Q9UBE8); conditions: Compound concentration 1000.0 nM
Chain of Serine/threonine-protein kinase NLK (Homo sapiens) (Q9UBE8 whole entry): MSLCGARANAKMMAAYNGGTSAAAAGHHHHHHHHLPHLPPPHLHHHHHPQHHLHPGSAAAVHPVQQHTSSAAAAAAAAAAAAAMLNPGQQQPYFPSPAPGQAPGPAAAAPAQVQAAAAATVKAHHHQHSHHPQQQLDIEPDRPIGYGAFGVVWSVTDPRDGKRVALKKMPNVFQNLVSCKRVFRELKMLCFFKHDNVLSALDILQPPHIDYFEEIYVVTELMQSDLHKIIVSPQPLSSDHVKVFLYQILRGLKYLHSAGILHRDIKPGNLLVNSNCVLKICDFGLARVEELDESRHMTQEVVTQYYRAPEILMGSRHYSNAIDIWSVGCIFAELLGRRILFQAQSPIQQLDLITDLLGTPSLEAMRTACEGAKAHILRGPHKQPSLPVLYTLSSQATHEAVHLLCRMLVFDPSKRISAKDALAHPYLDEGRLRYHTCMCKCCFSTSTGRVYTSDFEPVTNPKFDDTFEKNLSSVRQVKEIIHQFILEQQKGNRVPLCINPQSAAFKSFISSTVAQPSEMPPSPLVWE

[34] = target: Platelet-derived growth factor receptor alpha (Homo sapiens) (UniProt P16234); conditions: Compound concentration 1000.0 nM
[35] = target: Cyclin-dependent kinase 2 homolog (Plasmodium falciparum (isolate 3D7)) (UniProt P61075); conditions: Compound concentration 1000.0 nM
[36] = target: Phosphatidylinositol 4,5-bisphosphate 3-kinase catalytic subunit delta isoform (Homo sapiens) (UniProt O00329); conditions: Compound concentration 1000.0 nM
[37] = target: Serine/threonine-protein kinase D2 (Homo sapiens) (UniProt Q9BZL6); conditions: Compound concentration 1000.0 nM
[38] = target: Proto-oncogene tyrosine-protein kinase receptor Ret (Homo sapiens) (UniProt P07949); conditions: Compound concentration 1000.0 nM
[39] = target: Proto-oncogene tyrosine-protein kinase ROS (Homo sapiens) (UniProt P08922); conditions: Compound concentration 1000.0 nM
[40] = target: Proto-oncogene tyrosine-protein kinase Src (Homo sapiens) (UniProt P12931); conditions: Compound concentration 1000.0 nM
[41] = target: Serine/threonine-protein kinase 36 (Homo sapiens) (UniProt Q9NRP7); conditions: Compound concentration 1000.0 nM
[42] = target: STE20/SPS1-related proline-alanine-rich protein kinase (Homo sapiens) (UniProt Q9UEW8); conditions: Compound concentration 1000.0 nM
[43] = target: Non-receptor tyrosine-protein kinase TYK2 (Homo sapiens) (UniProt P29597); conditions: Compound concentration 1000.0 nM
[44] = target: Phosphatidylinositol 3-kinase catalytic subunit type 3 (Homo sapiens) (UniProt Q8NEB9); conditions: Compound concentration 1000.0 nM
[45] = target: Sodium-dependent serotonin transporter (Homo sapiens) (UniProt P31645); conditions: Compound concentration 10.0 uM

NS(=O)(=O)c1cc(NC(=O)Cc2ccccc2)ccc1Oc1cccc(Cl)c1 [BAY-1797]
residual activity [1]: 73%
residual activity [2]: 88%
residual activity [3]: 75%
residual activity [4]: 100%
residual activity [5]: 58%
residual activity [6]: 100%
residual activity [7]: 69%
residual activity [8]: 96%
residual activity [9]: 100%
residual activity [10]: 71%
residual activity [11]: 74%
residual activity [12]: 99%
residual activity [13]: 51%
residual activity [14]: 74%
residual activity [15]: 95%
residual activity [16]: 58%
residual activity [17]: 67%
residual activity [18]: 85%
residual activity [19]: 100%
residual activity [20]: 56%
residual activity [21]: 92%
residual activity [22]: 100%
residual activity [23]: 69%
residual activity [24]: 100%
residual activity [25]: 69%
residual activity [26]: 87%
residual activity [27]: 78%
residual activity [28]: 65%
residual activity [29]: 59%
residual activity [30]: 99%
residual activity [31]: 100%
residual activity [32]: 62%
residual activity [33]: 100%
residual activity [34]: 80%
residual activity [35]: 100%
residual activity [36]: 93%
residual activity [37]: 85%
residual activity [38]: 100%
residual activity [39]: 81%
residual activity [40]: 90%
residual activity [41]: 100%
residual activity [42]: 86%
residual activity [43]: 90%
residual activity [44]: 100%
inhibition [45]: 22.7%

NS(=O)(=O)c1cc(NC(=O)C2(c3ccccc3Cl)CC2)ccc1Oc1cccc(Cl)c1 [BAY-207]
residual activity [1]: 93%
residual activity [2]: 75%
residual activity [3]: 90%
residual activity [4]: 85%
residual activity [5]: 84%
residual activity [6]: 63%
residual activity [7]: 90%
residual activity [8]: 97%
residual activity [9]: 43%
residual activity [10]: 83%
residual activity [11]: 95%
residual activity [12]: 80%
residual activity [13]: 100%
residual activity [14]: 84%
residual activity [15]: 90%
residual activity [16]: 46%
residual activity [17]: 57%
residual activity [18]: 79%
residual activity [19]: 74%
residual activity [20]: 75%
residual activity [21]: 64%
residual activity [22]: 100%
residual activity [23]: 100%
residual activity [24]: 100%
residual activity [25]: 70%
residual activity [26]: 76%
residual activity [27]: 89%
residual activity [28]: 69%
residual activity [29]: 96%
residual activity [30]: 100%
residual activity [31]: 29%
residual activity [32]: 86%
residual activity [33]: 68%
residual activity [34]: 81%
residual activity [35]: 93%
residual activity [36]: 99%
residual activity [37]: 87%
residual activity [38]: 84%
residual activity [39]: 82%
residual activity [40]: 88%
residual activity [41]: 99%
residual activity [42]: 100%
residual activity [43]: 100%
residual activity [44]: 89%
inhibition [45]: 8.86%
